Experimental data: ChEMBL document CHEMBL4482319, “Targeting cyb5r3” (2016)
Each block holds one compound with its values, some of them ahead of it. The source made the active and inactive calls. The rule behind the calls is not given here.

Columns and labels:
[1] = species on record: Homo sapiens; experiment: Reduction in systolic blood pressure in patient with acute decompensated heart failure during phase II clinical trial; assay type: functional
[2] = target: T1, NADH-cytochrome b5 reductase (Homo sapiens) (UniProt P00387); experiment: Inhibition of Cyb5R3 (unknown origin) expressed in HEK293 cells at 21.86 uM incubated for 24 hrs in presence of potassium ferricyanide and NADH by spectrophotometric assay; assay type: cell-based
T1 sequence (whole entry): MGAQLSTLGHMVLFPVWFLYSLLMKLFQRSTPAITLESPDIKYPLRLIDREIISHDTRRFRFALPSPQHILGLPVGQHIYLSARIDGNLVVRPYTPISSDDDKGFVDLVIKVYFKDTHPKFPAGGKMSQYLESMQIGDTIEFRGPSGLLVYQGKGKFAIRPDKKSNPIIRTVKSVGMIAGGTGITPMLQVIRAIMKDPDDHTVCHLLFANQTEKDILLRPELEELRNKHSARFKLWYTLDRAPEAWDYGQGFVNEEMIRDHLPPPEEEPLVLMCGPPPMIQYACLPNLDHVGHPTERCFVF

[3] = target: T2, NADH-cytochrome b5 reductase 3 (Rattus norvegicus) (UniProt P20070); experiment: Inhibition of Cyb5R3 in rat thoracodorsal arteries assessed as inhibition of DETA NONOate-induced response incubated for 24 hrs by pressure myography
T2 sequence (whole entry): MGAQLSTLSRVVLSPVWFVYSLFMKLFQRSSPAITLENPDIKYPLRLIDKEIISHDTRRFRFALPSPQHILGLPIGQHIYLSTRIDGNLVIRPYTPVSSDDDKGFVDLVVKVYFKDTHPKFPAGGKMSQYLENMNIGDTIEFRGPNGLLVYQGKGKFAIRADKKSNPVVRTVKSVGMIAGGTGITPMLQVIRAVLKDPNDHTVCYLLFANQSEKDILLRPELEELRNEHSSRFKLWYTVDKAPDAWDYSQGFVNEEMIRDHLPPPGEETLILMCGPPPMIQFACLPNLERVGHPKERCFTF

[4] = target: T2, NADH-cytochrome b5 reductase 3 (Rattus norvegicus); experiment: Inhibition of Cyb5R3 in rat thoracodorsal arteries assessed as inhibition of DETA NONOate-induced response incubated for 24 hrs in presence of sGC activator Bay 58-2667 by pressure myography
[5] = target: T2, NADH-cytochrome b5 reductase 3 (Rattus norvegicus); experiment: Inhibition of Cyb5R3 in DETA NONOate-stimulated rat aortic VSMs assessed as reduction in NO-induced cGMP production in presence of sGC activator Bay 58-2667
[6] = tested on: Mus musculus; experiment: Induction of hypertension in C57B1/6 mouse assessed as increase in diastolic pressure at 10 mg/kg/day dosed via osmotic mini pumps for 14 days; assay type: functional, organism-based
[7] = tested on: Mus musculus; experiment: Induction of hypertension in C57B1/6 mouse assessed as increase in mean arterial pressure at 10 mg/kg/day dosed via osmotic mini pumps for 14 days; assay type: functional, organism-based
[8] = target: T2, NADH-cytochrome b5 reductase 3 (Rattus norvegicus); experiment: Inhibition of Cyb5R3 in rat aortic VSMs assessed as reduction in decrease in basal cGMP levels
[9] = target: T2, NADH-cytochrome b5 reductase 3 (Rattus norvegicus); experiment: Inhibition of Cyb5R3 in rat aortic VSMs assessed as reduction in decrease in sGC protein by Western blot analysis; conditions: concentration not given here
[10] = tested on: Mus musculus; experiment: Induction of hypertension in C57B1/6 mouse assessed as increase in systolic pressure at 10 mg/kg/day dosed via osmotic mini pumps for 14 days; assay type: functional, organism-based

Compound: O=C(O)CCCCN(CCc1ccccc1OCc1ccc(CCc2ccccc2)cc1)Cc1ccc(C(=O)O)cc1
Activity [1]: 16.6 mmHg

inhibition [2]: > 80%
Compound: Oc1cc(CSc2ccccc2)nc(S)n1

inhibition [3]: Active | inhibition [4]: inactive | inhibition [5]: inactive | inhibition [8]: Active | inhibition [9]: < 75%
Compound: O=c1cc(CS[C@@H]2Nc3ccccc3O2)[nH]c(=S)[nH]1
Activity [6]: Active | Activity [7]: Active | Activity [10]: Active
